From ChEMBL document CHEMBL1201862, “PubChem BioAssay data set” (2004)
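Tested at 5 concentrations; 48 h exposure; 96-well plates; endpoints linearly interpolated, else capped at highest concentration. The concentration for 50% growth inhibition is given as GI50.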 Calls of active or inactive are those of the source. Rule as the data show it: active = GI50 up to about 1.1 µM and inactive = higher.

Key:
Assay in all cases: DTP human tumour cell line panel, 48 h
[1] = test system: 786-0
[2] = test system: A498
[3] = test system: A549
[4] = test system: ACHN
[5] = test system: BT-549
[6] = test system: CAKI-1
[7] = test system: CCRF-CEM
[8] = test system: COLO 205
[9] = test system: DU-145
[10] = test system: EKVX
[11] = test system: HCC 2998
[12] = test system: HCT-116
[13] = test system: HCT-15
[14] = test system: HL-60
[15] = test system: HOP-62
[16] = test system: HOP-92
[17] = test system: HT-29
[18] = test system: Hs-578T
[19] = test system: IGROV-1
[20] = test system: K562
[21] = test system: KM12
[22] = test system: LOX IMVI
[23] = test system: MCF7
[24] = test system: MDA-MB-231
[25] = test system: MDA-MB-435
[26] = test system: MDA-N
[27] = test system: MOLT-4
[28] = test system: Malme-3M
[29] = test system: NCI-H226
[30] = test system: NCI-H23
[31] = test system: NCI-H460
[32] = test system: NCI-H522
[33] = test system: NCI/ADR-RES
[34] = test system: OVCAR-3
[35] = test system: OVCAR-4
[36] = test system: OVCAR-5
[37] = test system: OVCAR-8
[38] = test system: PC-3
[39] = test system: RPMI-8226
[40] = test system: RXF 393
[41] = test system: SF-268
[42] = test system: SF-295
[43] = test system: SF-539
[44] = test system: SK-MEL-28
[45] = test system: SK-MEL-5
[46] = test system: SK-OV-3
[47] = test system: SN12C
[48] = test system: SNB-75
[49] = test system: SR
[50] = test system: SW-620
[51] = test system: T47D
[52] = test system: TK-10
[53] = test system: U-251
[54] = test system: UACC-257
[55] = test system: UACC-62
[56] = test system: UO-31
[57] = test system: M14
[58] = test system: SK-MEL-2
[59] = test system: SNB-19

In the case of `Cc1ccc(C2=Nn3c(nc4sc(C)c(C)c4c3=O)SC2)cc1`, the GI50 [1] is reported as > 100 µM (inactive), the GI50 [2] is reported as > 100 µM (inactive) and the GI50 [3] is reported as > 100 µM (inactive). The GI50 [4] was > 100 µM (inactive), the GI50 [5] was > 100 µM (inactive) and the GI50 [6] was > 100 µM (inactive). For the same compound, the GI50 [7] was > 10 µM (inactive), the GI50 [8] was > 100 µM (inactive) and the GI50 [9] was > 100 µM (inactive). For the same compound, the GI50 [10] was > 100 µM (inactive), the GI50 [11] was > 100 µM (inactive) and the GI50 [12] was > 100 µM (inactive). The GI50 [13] was greater than 100 µM, the GI50 [14] was > 100 µM (inactive) and the GI50 [15] was 64.1 µM (inactive). The GI50 [16] was > 100 µM (inactive), the GI50 [17] was > 100 µM (inactive) and the GI50 [18] was > 100 µM (inactive). For the same compound, the GI50 [19] was > 100 µM (inactive), the GI50 [20] was > 100 µM (inactive) and the GI50 [21] was > 100 µM (inactive). For the same compound, the GI50 [22] was > 100 µM (inactive), the GI50 [23] was > 100 µM (inactive) and the GI50 [24] was > 100 µM (inactive). The GI50 [25] was > 100 µM (inactive), the GI50 [26] was > 100 µM (inactive) and the GI50 [27] was > 100 µM (inactive). For the same compound, the GI50 [28] was > 100 µM (inactive), the GI50 [29] was > 100 µM (inactive) and the GI50 [30] was > 100 µM (inactive). For the same compound, the GI50 [31] was > 100 µM (inactive), the GI50 [32] was > 100 µM (inactive) and the GI50 [33] was > 100 µM (inactive). For the same compound, the GI50 [34] was > 100 µM (inactive), the GI50 [35] was > 100 µM (inactive) and the GI50 [36] was > 100 µM (inactive). The GI50 [37] was > 100 µM (inactive), the GI50 [38] was > 100 µM (inactive) and the GI50 [39] was > 100 µM (inactive). The GI50 [40] was > 100 µM (inactive), the GI50 [41] was > 100 µM (inactive) and the GI50 [42] was > 100 µM (inactive). For the same compound, the GI50 [43] was > 100 µM (inactive), the GI50 [44] was > 100 µM (inactive) and the GI50 [45] was > 100 µM (inactive). The GI50 [46] was > 100 µM (inactive), the GI50 [47] was > 100 µM (inactive) and the GI50 [48] was 56.4 µM (inactive). For the same compound, the GI50 [49] was > 100 µM (inactive), the GI50 [50] was > 100 µM (inactive) and the GI50 [51] was > 100 µM (inactive). The GI50 [52] was 23.3 µM (inactive), the GI50 [53] was > 100 µM (inactive) and the GI50 [54] was > 100 µM (inactive). For the same compound, the GI50 [55] was > 100 µM (inactive) and the GI50 [56] was > 100 µM (inactive).
In the case of `CC(NNC(=O)c1cc[n+]([BH2-]C#N)cc1)c1cccc(F)c1` (stereo not drawn), the GI50 [1] is reported as > 100 µM (inactive), the GI50 [2] is reported as > 100 µM (inactive) and the GI50 [3] is reported as > 100 µM (inactive). The GI50 [4] was > 100 µM (inactive), the GI50 [5] was > 100 µM (inactive) and the GI50 [6] was > 100 µM (inactive). For the same compound, the GI50 [7] was > 100 µM (inactive), the GI50 [8] was > 100 µM (inactive) and the GI50 [9] was > 100 µM (inactive). For the same compound, the GI50 [10] was > 100 µM (inactive), the GI50 [11] was > 100 µM (inactive) and the GI50 [12] was > 100 µM (inactive). The GI50 [13] was greater than 100 µM, the GI50 [14] was 50.5 µM (inactive) and the GI50 [16] was > 100 µM (inactive). For the same compound, the GI50 [18] was > 100 µM (inactive), the GI50 [19] was > 100 µM (inactive) and the GI50 [20] was > 100 µM (inactive). The GI50 [21] was > 100 µM (inactive), the GI50 [22] was > 100 µM (inactive) and the GI50 [57] was > 100 µM (inactive). The GI50 [23] was > 100 µM (inactive), the GI50 [24] was > 100 µM (inactive) and the GI50 [25] was > 100 µM (inactive). The GI50 [26] was > 100 µM (inactive), the GI50 [27] was > 100 µM (inactive) and the GI50 [28] was > 100 µM (inactive). The GI50 [29] was > 100 µM (inactive), the GI50 [31] was > 100 µM (inactive) and the GI50 [32] was > 100 µM (inactive). For the same compound, the GI50 [33] was > 100 µM (inactive), the GI50 [34] was > 100 µM (inactive) and the GI50 [35] was 69.8 µM (inactive). The GI50 [36] was > 100 µM (inactive), the GI50 [37] was > 100 µM (inactive) and the GI50 [38] was > 100 µM (inactive). The GI50 [39] was > 100 µM (inactive), the GI50 [40] was > 100 µM (inactive) and the GI50 [41] was > 100 µM (inactive). The GI50 [42] was > 100 µM (inactive), the GI50 [43] was > 100 µM (inactive) and the GI50 [44] was > 100 µM (inactive). The GI50 [58] was > 100 µM (inactive), the GI50 [45] was 94.2 µM (inactive) and the GI50 [47] was > 100 µM (inactive). The GI50 [59] was > 100 µM (inactive), the GI50 [48] was > 100 µM (inactive) and the GI50 [49] was > 100 µM (inactive). For the same compound, the GI50 [50] was > 100 µM (inactive), the GI50 [51] was > 100 µM (inactive) and the GI50 [52] was > 100 µM (inactive). For the same compound, the GI50 [53] was > 100 µM (inactive), the GI50 [54] was > 100 µM (inactive) and the GI50 [55] was > 100 µM (inactive). For the same compound, the GI50 [56] was > 100 µM (inactive).
For `CC1OC(Oc2c(-c3cc(O)c(O)c(O)c3)oc3cc(O)cc(O)c3c2=O)C(O)C(O)C1O` (stereo not drawn), the GI50 [1] was > 100 µM (inactive), the GI50 [2] was > 100 µM (inactive) and the GI50 [3] was > 100 µM (inactive). For the same compound, the GI50 [4] was > 100 µM (inactive), the GI50 [5] was > 100 µM (inactive) and the GI50 [6] was > 100 µM (inactive). The GI50 [7] was > 10 µM (inactive), the GI50 [8] was > 100 µM (inactive) and the GI50 [9] was > 100 µM (inactive). The GI50 [10] was > 100 µM (inactive), the GI50 [11] was > 100 µM (inactive) and the GI50 [12] was > 100 µM (inactive). The GI50 [13] was greater than 100 µM, the GI50 [14] was 56.6 µM (inactive) and the GI50 [15] was > 100 µM (inactive). For the same compound, the GI50 [16] was > 100 µM (inactive), the GI50 [17] was > 100 µM (inactive) and the GI50 [18] was > 100 µM (inactive). The GI50 [19] was > 100 µM (inactive), the GI50 [21] was > 100 µM (inactive) and the GI50 [22] was > 100 µM (inactive). For the same compound, the GI50 [57] was > 100 µM (inactive), the GI50 [23] was > 100 µM (inactive) and the GI50 [24] was 87.9 µM (inactive). For the same compound, the GI50 [25] was 57.4 µM (inactive), the GI50 [26] was 31 µM (inactive) and the GI50 [27] was > 100 µM (inactive). For the same compound, the GI50 [28] was > 100 µM (inactive), the GI50 [29] was > 100 µM (inactive) and the GI50 [30] was > 100 µM (inactive). For the same compound, the GI50 [32] was > 100 µM (inactive), the GI50 [33] was > 100 µM (inactive) and the GI50 [34] was > 100 µM (inactive). For the same compound, the GI50 [35] was > 100 µM (inactive), the GI50 [36] was > 100 µM (inactive) and the GI50 [37] was > 100 µM (inactive). The GI50 [38] was > 100 µM (inactive), the GI50 [39] was > 100 µM (inactive) and the GI50 [40] was > 100 µM (inactive). For the same compound, the GI50 [41] was > 100 µM (inactive), the GI50 [42] was > 100 µM (inactive) and the GI50 [43] was > 100 µM (inactive). The GI50 [44] was > 100 µM (inactive), the GI50 [58] was > 100 µM (inactive) and the GI50 [45] was > 100 µM (inactive). The GI50 [46] was > 100 µM (inactive), the GI50 [47] was > 100 µM (inactive) and the GI50 [59] was > 100 µM (inactive). The GI50 [48] was > 100 µM (inactive), the GI50 [49] was 96.8 µM (inactive) and the GI50 [50] was > 100 µM (inactive). The GI50 [51] was > 100 µM (inactive), the GI50 [52] was > 100 µM (inactive) and the GI50 [53] was > 100 µM (inactive). The GI50 [54] was > 100 µM (inactive), the GI50 [55] was > 100 µM (inactive) and the GI50 [56] was > 100 µM (inactive).
